This passage reports IC50 results from patent US20240109893A1, “PREPARATION AND APPLICATION METHOD OF HETEROCYCLIC COMPOUNDS AS KRAS INHIBITOR” (SHANGHAI KECHOW PHARMA, INC., priority 2020, published 2024).

Structures are written as SMILES.

The test system of the first test is H358 cells. The experiment in a line: Cell activity experiment: activity test of H358 cells (MTT, 5 days). In kind it is cell-based. Particulars: 5 days incubation, absorbance 492 nm. Here is the method:
Example: Cell Activity Experiment
1. Cells: H358 purchased from Shanghai EK-Bioscience Biotechnology Co., Ltd.
2. Reagents: RPMI 1640 medium, Tryple, MTT (5 mg/mL), DMSO, and DPBS.
3. Instruments: an incubator at 37° C. and 5% CO2, a UTRAO microplate reader, a biosafety cabinet, a cell counting plate, and an Optec optical microscope.
4. Experimental consumables: 96-well plate Item No.: 3599, and 96-well round-bottomed dispensing plate.
Experimental Steps of Activity Test of H358 Cells:
1. Plating: Cells in the logarithmic growth phase were digested with Tryple and terminated with a fresh medium, and the cells were counted; and the cell concentration was adjusted to 55555 cells/mL with a fresh medium, wherein 90 μL was added to each well, and those on edges were filled with sterile DPBS.
2. The plate was incubated in the incubator at 37° C. and 5% CO2 for 24 h, so that the cells cover the bottom of the well by about 50%.
3. Drug preparation for experimental group: The drug was dissolved in DMSO to prepare a 20 mmol/L stock solution; the stock solution was further diluted with DMSO to 2 mmol/L, which was serially 3-fold diluted to form an […]-concentration gradient, resulting in a 200× serial compound solution; 10 μL of the serial compound solution was taken and added to 190 μLμL of RPMI1640 medium to obtain a 10× serial compound solution; and 10 μL of the 10× compound solution was taken and added to 90 μL 96-well cell culture plate, with three replicates per grade. The concentration gradient of the compound in the 96-well cell culture plate was […], 1.524158 nM, 4.572474 nM, 13.717420 nM, 41.152260 nM, 123.456800 nM, 370.370400 nM, 1111.111000 nM, 3333.333000 nM, and 10000.000000 nM, with 100 μL per well, and the final concentration of DMSO was 0.5%.
The control group contained the same volume of solvent as the experimental group and was diluted with a complete medium, with 100 μL per well.
4. Incubation was carried out for 5 days in an incubator with 5% CO2 at 37° C.
5. After 5 days, 10 μL of an MTT solution (5 mg/mL) was added to each well, and the culture was continued for 4 h.
6. The culture was terminated, and the culture solution was carefully sucked out of the well.
7. 150 μL of dimethyl sulfoxide (DMSO) was added to each of the null wells in the experimental group and the control group; and after shaking at a medium speed for 10 s, the crystal was fully dissolved, and the optical absorbance value thereof was measured at a wavelength of 492 nm.
As a reminder, the IC50 is the concentration needed to halve the response being measured. The low end stands for greater potency in that assay, the high end for weaker potency in that assay. `C=C(F)C(=O)N1CCN(c2nc(OCC3(CN4CCCC4)CC3)nc3c(F)c(-c4cccc5c4C4CC4C5)ncc23)C[C@@H]1CC#N` (single isomer, unassigned) [Example 868] came in with an IC50 of 6.6 nM.

Consider `C=C(F)C(=O)N1CCN(c2nc(OCC3(CN4CCCC4)CC3)nc3c(F)c(-c4cccc5c4C4CC4C5)ccc23)C[C@@H]1CC#N` (single isomer, unassigned) [Example 871], for which 9 nM corresponded to half-maximal inhibition (IC50). This IC50 and that of the compound before are within 1.5-fold of each other.

As to `C=CC(=O)N1CCN(c2nc(OC[C@@H]3CCCN3C)nc3c(F)c(-c4cccc5c4CC4CC54)ncc23)C[C@@H]1CC#N` (single isomer, unassigned) [Example 874], the IC50 came to 429 nM.

`C=CC(=O)N1CCN(c2nc(OC[C@@]34CCCN3C[C@H](F)C4)nc3c(F)c(-c4cccc5c4CC4CC54)ncc23)C[C@@H]1CC#N` (single isomer, unassigned) [Example 877] gave an IC50 of 9.5 nM.

`C=C(F)C(=O)N1CCN(c2nc(OC[C@@]34CCCN3C[C@H](F)C4)nc3c(F)c(-c4cccc5c4CC4CC54)ncc23)C[C@@H]1CC#N` (single isomer, unassigned) [Example 880] registered an IC50 of 433 nM.

As for `C=CC(=O)N1CCN(c2nc(OC[C@@H]3CCCN3C)nc3c(F)c(-c4cccc5c4CC4CC54)ccc23)C[C@@H]1CC#N` (single isomer, unassigned) [Example 882], the IC50 came out at 550 nM. The IC50 values of the last two compounds are within 1.5-fold of each other.

Turning to `C=C(F)C(=O)N1CCN(c2nc(OC[C@@H]3CCCN3C)nc3c(F)c(-c4cccc5c4CC4CC54)ccc23)C[C@@H]1CC#N` (single isomer, unassigned) [Example 884], the IC50 was determined as 1260 nM.

Turning to `C=C(F)C(=O)N1CCN(c2nc(OC[C@@]34CCCN3C[C@H](F)C4)nc3c(F)c(-c4cccc5c4CC4CC54)ccc23)C[C@@H]1CC#N` (single isomer, unassigned) [Example 888], the IC50 is 292 nM.

For the compound `C=C(F)C(=O)N1CCN(c2nc(OC[C@@]34CCCN3C[C@H](F)C4)nc3c(OC4CC4)c(-c4cccc5c4CC4CC54)c(Cl)cc23)C[C@@H]1CC#N` (single isomer, unassigned) [Example 918], inhibition was half-maximal at 40 nM (IC50).

In turn, `C=C(F)C(=O)N1CCN(c2nc(OC[C@@]34CCCN3C[C@H](F)C4)nc3c(OC4CC4)c(-c4cccc5c4CC4CC54)c(Cl)cc23)C[C@@H]1CC#N` (single isomer, unassigned) [Example 919] returned an IC50 of 1680 nM. Against the preceding compound, the IC50 is about 42-fold higher.

Staying with this test, now noted: Homo sapiens, NCI-H358, 120 h, 5 days incubation, absorbance 492 nm.
In the case of `C=C(F)C(=O)N1CCN(c2nc(OCC3(CN4CCCC4)CC3)nc3c(F)c(-c4cccc5c4C4CC4C5)ncc23)C[C@@H]1CC#N` (single isomer, unassigned) [Example 867], the IC50 turned out to be 5.9 nM.

`C=C(F)C(=O)N1CCN(c2nc(OCC3(CN4CCCC4)CC3)nc3c(F)c(-c4cccc5c4C4CC4C5)ccc23)C[C@@H]1CC#N` (single isomer, unassigned) [Example 870]: the IC50 is 7.2 nM.

Consider `C=CC(=O)N1CCN(c2nc(OC[C@@]34CCCN3C[C@H](F)C4)nc3c(F)c(-c4cccc5c4CC4CC54)ncc23)C[C@@H]1CC#N` (single isomer, unassigned) [Example 878], for which the IC50 stood at 236 nM. Against the preceding compound, the IC50 is about 33-fold higher.

Consider `C=C(F)C(=O)N1CCN(c2nc(OC[C@@H]3CCCN3C)nc3c(F)c(-c4cccc5c4CCCC5)ncc23)C[C@@H]1CC#N` [Example 4, 2-((S)-4-(8-fluoro-2-(((S)-1-methylpyrrolidin-2-yl)methoxy)-7-(5,6,7,8-tetrahydronaphthalen-1-yl)pyridino[4,3-d]pyrimidin-4-yl)-1-(2-fluoroacryloyl)piperazin-2-yl)acetonitrile], for which half-maximal inhibition (IC50) was put at 70 nM. This IC50 is about 3.4-fold lower than that of the compound before.

Regarding `C=CC(=O)N1CCN(c2nc(OC[C@@H]3C[C@@H](F)CN3C)nc3c(F)c(-c4cccc5c4CCCC5)ncc23)C[C@@H]1CC#N` [Example 5, 2-((S)-1-acryloyl-4-(8-fluoro-2-(((2S,4R)-4-fluoro-1-methylpyrrolidin-2-yl)methoxy)-7-(5,6,7,8-tetrahydronaphthalen-1-yl)pyridino[4,3-d]pyrimidin-4-yl)piperazin-2-yl)acetonitrile], half-maximal inhibition (IC50) was put at 20 nM.

`C=C(F)C(=O)N1CCN(c2nc(OC[C@@H]3C[C@@H](F)CN3C)nc3c(F)c(-c4cccc5c4CCCC5)ncc23)C[C@@H]1CC#N` [Example 6] yielded an IC50 of 90 nM. Against the preceding compound, the IC50 is about 4.5-fold higher.

In turn, `C=CC(=O)N1CCN(c2nc(OC[C@@]34CCCN3C[C@H](F)C4)nc3c(F)c(-c4cccc5c4CCCC5)ncc23)C[C@@H]1CC#N` [Example 7, 2-((S)-1-acryloyl-4-(8-fluoro-2-(((2R,7aS)-2-fluorotetrahydro-1H-pyrrolizin-7a(5H)-yl)methoxy)-7-(5,6,7,8-tetrahydronaphthalen-1-yl)pyridino[4,3-d]pyrimidin-4-yl)piperazin-2-yl)acetonitrile] displayed an IC50 of 0.07 nM.

As for `C=C(F)C(=O)N1CCN(c2nc(OC[C@@]34CCCN3C[C@H](F)C4)nc3c(F)c(-c4cccc5c4CCCC5)ncc23)C[C@@H]1CC#N` [Example 8, 2-((S)-4-(8-fluoro-2-(((2R,7aS)-2-fluorotetrahydro-1H-pyrrolizin-7a(5H)-yl)methoxy)-7-(5,6,7,8-tetrahydronaphthalen-1-yl)pyridino[4,3-d]pyrimidin-4-yl)-1-(2-fluoroacryloyl)piperazin-2-yl)acetonitrile], the midpoint of inhibition, the IC50, lay at 0.64 nM.

In turn, `C=CC(=O)N1CC[C@@H]2[C@H]1CN2c1nc(OC[C@@H]2CCCN2C)nc2c(F)c(-c3cccc4c3CCCC4)ncc12` [Example 9, 1-((1R,5R)-6-(8-fluoro-2-(((S)-1-methylpyrrolidin-2-yl)methoxy)-7-(5,6,7,8-tetrahydronaphthalen-1-yl)pyridino[4,3-d]pyrimidin-4-yl)-2,6-diazabicyclo[3.2.0]hept-2-yl)prop-2-en-1-one] showed an IC50 of 10 nM.

For `C=CC(=O)N1CC[C@@H]2[C@H]1CN2c1nc(OC[C@@H]2C[C@@H](F)CN2C)nc2c(F)c(-c3cccc4c3CCCC4)ncc12` [Example 11], the 50% inhibitory concentration (IC50) turned out to be 26 nM.

The compound `C=C(F)C(=O)N1CC[C@@H]2[C@H]1CN2c1nc(OC[C@@H]2C[C@@H](F)CN2C)nc2c(F)c(-c3cccc4c3CCCC4)ncc12` [Example 12] had an IC50 of 80 nM.

For `C=CC(=O)N1CC[C@@H]2[C@H]1CN2c1nc(OCC23CCCN2CCC3)nc2c(F)c(-c3cccc4c3CCCC4)ncc12` [Example 13, 1-((1R,5R)-6-(8-fluoro-2-((tetrahydro-1H-pyrrolizin-7a(5H)-yl)methoxy)-7-(5,6,7,8-tetrahydronaphthalen-1-yl)pyridino[4,3-d]pyrimidin-4-yl)-2,6-diazabicyclo[3.2.0]hept-2-yl)prop-2-en-1-one], the IC50 is 5 nM. Against the preceding compound, the IC50 is about 16-fold lower.

Compound `C=C(F)C(=O)N1CC[C@@H]2[C@H]1CN2c1nc(OCC23CCCN2CCC3)nc2c(F)c(-c3cccc4c3CCCC4)ncc12` [Example 14, 2-fluoro-1-((1R,5R)-6-(8-fluoro-2-((tetrahydro-1H-pyrrolizin-7a(5H)-yl)methoxy)-7-(5,6,7,8-tetrahydronaphthalen-1-yl)pyridino[4,3-d]pyrimidin-4-yl)-2,6-diazabicyclo[3.2.0]hept-2-yl)prop-2-en-1-one] gave an IC50 of 30 nM. This IC50 lies about 6-fold higher than the previous one.

The compound `C=CC(=O)N1CC[C@@H]2[C@H]1CN2c1nc(OC[C@@]23CCCN2C[C@H](F)C3)nc2c(F)c(-c3cccc4c3CCCC4)ncc12` [Example 15] displayed an IC50 of 3 nM. This IC50 is about 10-fold lower than that of the compound before.

In turn, `C=C(F)C(=O)N1CC[C@@H]2[C@H]1CN2c1nc(OC[C@@]23CCCN2C[C@H](F)C3)nc2c(F)c(-c3cccc4c3CCCC4)ncc12` [Example 16] gave an IC50 of 5 nM. Against the preceding compound, the IC50 is about 1.7-fold higher.

For the compound `C=C(F)C(=O)N1CCN(c2nc(OC[C@@H]3CCCN3C)nc3c(F)c(-c4ccc(F)c5c4CCCC5)ncc23)C[C@@H]1CC#N` [Example 18], it took 100 nM to reach half-maximal inhibition (IC50).

As to `C=CC(=O)N1CCN(c2nc(OC[C@@H]3C[C@@H](F)CN3C)nc3c(F)c(-c4ccc(F)c5c4CCCC5)ncc23)C[C@@H]1CC#N` [Example 19], the IC50 turned out to be 35 nM.

`C=C(F)C(=O)N1CCN(c2nc(OC[C@@H]3C[C@@H](F)CN3C)nc3c(F)c(-c4ccc(F)c5c4CCCC5)ncc23)C[C@@H]1CC#N` [Example 20] had an IC50 of 120 nM. Against the preceding compound, the IC50 is about 3.4-fold higher.

As for `C=CC(=O)N1CCN(c2nc(OCC34CCCN3CCC4)nc3c(F)c(-c4ccc(F)c5c4CCCC5)ncc23)C[C@@H]1CC#N` [Example 21], the IC50 was determined as 7 nM.

`C=C(F)C(=O)N1CCN(c2nc(OCC34CCCN3CCC4)nc3c(F)c(-c4ccc(F)c5c4CCCC5)ncc23)C[C@@H]1CC#N` [Example 22] had a 50% inhibitory concentration (IC50) of 20 nM.

On to `C=CC(=O)N1CCN(c2nc(OC[C@@]34CCCN3C[C@H](F)C4)nc3c(F)c(-c4ccc(F)c5c4CCCC5)ncc23)C[C@@H]1CC#N` [Example 23], for which 3 nM corresponded to half-maximal inhibition (IC50).
